Experimental data: ChEMBL document CHEMBL1201862, “PubChem BioAssay data set” (2004)
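Interpolation was linear, between the two tested concentrations surrounding the appropriate level; five concentrations were tested over 48 hours in 96-well plates. GI50 = concentration required for 50% inhibition of growth.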 Active and inactive are the calls of the source. No stated cut-off is given here; in the data, active = GI50 up to about 1.1 µM and inactive = higher.

Assays:
Assay in all cases: NCI-60 cell line screen, 48 h
SF-268 = system: SF-268
A549 = system: A549
786-0 = system: 786-0
RXF 393 = system: RXF 393
CAKI-1 = system: CAKI-1
HCT-15 = system: HCT-15
ACHN = system: ACHN
SNB-75 = system: SNB-75
SN12C = system: SN12C
XF498 = system: XF498
KM12 = system: KM12
NCI-H522 = system: NCI-H522
HOP-92 = system: HOP-92
NCI-H460 = system: NCI-H460
OVCAR-5 = system: OVCAR-5
LXFL 529 = system: LXFL 529
OVCAR-3 = system: OVCAR-3
SK-MEL-28 = system: SK-MEL-28
SW-620 = system: SW-620
COLO 205 = system: COLO 205
Malme-3M = system: Malme-3M
UACC-257 = system: UACC-257
KM-20L2 = system: KM-20L2
SF-295 = system: SF-295
RPMI-8226 = system: RPMI-8226
HOP-62 = system: HOP-62
UACC-62 = system: UACC-62
OVCAR-4 = system: OVCAR-4
SNB-19 = system: SNB-19
M19-MEL = system: M19-MEL
SK-OV-3 = system: SK-OV-3
SK-MEL-2 = system: SK-MEL-2
CCRF-CEM = system: CCRF-CEM
MOLT-4 = system: MOLT-4
DMS-114 = system: DMS-114
LOX IMVI = system: LOX IMVI
K562 = system: K562
HCT-116 = system: HCT-116
IGROV-1 = system: IGROV-1
HOP-18 = system: HOP-18
NCI-H226 = system: NCI-H226
M14 = system: M14
HL-60 = system: HL-60
DMS-273 = system: DMS-273
OVCAR-8 = system: OVCAR-8
UO-31 = system: UO-31
SNB-78 = system: SNB-78
HT-29 = system: HT-29
SF-539 = system: SF-539
SK-MEL-5 = system: SK-MEL-5
U-251 = system: U-251
NCI-H23 = system: NCI-H23
DLD-1 = system: DLD-1
TK-10 = system: TK-10
HCC 2998 = system: HCC 2998
A498 = system: A498
EKVX = system: EKVX

With `CN(C(=O)c1cccs1)C(=S)N1CCN(c2ccccn2)CC1` the GI50 (SF-268) was > 100 µM (inactive), the GI50 (A549) was > 100 µM (inactive) and the GI50 (786-0) was > 100 µM (inactive). The GI50 (RXF 393) was > 100 µM (inactive), the GI50 (CAKI-1) was > 100 µM (inactive) and the GI50 (HCT-15) was over 100 µM. The GI50 (ACHN) was > 100 µM (inactive), the GI50 (SNB-75) was > 100 µM (inactive) and the GI50 (SN12C) was > 100 µM (inactive). The GI50 (XF498) was > 100 µM (inactive), the GI50 (KM12) was > 100 µM (inactive) and the GI50 (NCI-H522) was > 100 µM (inactive). For the same compound, the GI50 (HOP-92) was > 100 µM (inactive), the GI50 (NCI-H460) was > 100 µM (inactive) and the GI50 (OVCAR-5) was > 100 µM (inactive). For the same compound, the GI50 (LXFL 529) was > 100 µM (inactive), the GI50 (OVCAR-3) was > 100 µM (inactive) and the GI50 (SK-MEL-28) was > 100 µM (inactive). The GI50 (SW-620) was > 100 µM (inactive), the GI50 (COLO 205) was > 100 µM (inactive) and the GI50 (Malme-3M) was > 100 µM (inactive). The GI50 (UACC-257) was > 100 µM (inactive), the GI50 (KM-20L2) was > 100 µM (inactive) and the GI50 (SF-295) was > 100 µM (inactive). For the same compound, the GI50 (RPMI-8226) was > 100 µM (inactive), the GI50 (HOP-62) was > 100 µM (inactive) and the GI50 (UACC-62) was > 100 µM (inactive). For the same compound, the GI50 (OVCAR-4) was > 100 µM (inactive), the GI50 (SNB-19) was > 100 µM (inactive) and the GI50 (M19-MEL) was > 100 µM (inactive). For the same compound, the GI50 (SK-OV-3) was > 100 µM (inactive), the GI50 (SK-MEL-2) was > 100 µM (inactive) and the GI50 (CCRF-CEM) was > 100 µM (inactive). For the same compound, the GI50 (MOLT-4) was > 100 µM (inactive), the GI50 (DMS-114) was > 100 µM (inactive) and the GI50 (LOX IMVI) was > 100 µM (inactive). The GI50 (K562) was > 100 µM (inactive), the GI50 (HCT-116) was > 100 µM (inactive) and the GI50 (IGROV-1) was > 100 µM (inactive). The GI50 (HOP-18) was > 100 µM (inactive), the GI50 (NCI-H226) was > 100 µM (inactive) and the GI50 (M14) was > 100 µM (inactive). The GI50 (HL-60) was > 100 µM (inactive), the GI50 (DMS-273) was > 100 µM (inactive) and the GI50 (OVCAR-8) was > 100 µM (inactive). For the same compound, the GI50 (UO-31) was > 100 µM (inactive), the GI50 (SNB-78) was > 100 µM (inactive) and the GI50 (HT-29) was > 100 µM (inactive). The GI50 (SF-539) was > 100 µM (inactive), the GI50 (SK-MEL-5) was > 100 µM (inactive) and the GI50 (U-251) was > 100 µM (inactive). The GI50 (NCI-H23) was > 100 µM (inactive), the GI50 (DLD-1) was > 100 µM (inactive) and the GI50 (TK-10) was > 100 µM (inactive).
For `CS(=O)(=O)NNS(=O)(=O)c1ccc(Br)cc1`, the GI50 (SF-268) was > 100 µM (inactive), the GI50 (A549) was > 100 µM (inactive) and the GI50 (786-0) was > 100 µM (inactive). For the same compound, the GI50 (RXF 393) was > 100 µM (inactive), the GI50 (CAKI-1) was > 100 µM (inactive) and the GI50 (HCT-15) was over 100 µM. For the same compound, the GI50 (ACHN) was > 100 µM (inactive), the GI50 (SNB-75) was 87.7 µM (inactive) and the GI50 (HCC 2998) was > 100 µM (inactive). The GI50 (XF498) was > 100 µM (inactive), the GI50 (NCI-H522) was > 100 µM (inactive) and the GI50 (A498) was > 100 µM (inactive). For the same compound, the GI50 (HOP-92) was > 100 µM (inactive), the GI50 (NCI-H460) was > 100 µM (inactive) and the GI50 (OVCAR-5) was > 100 µM (inactive). For the same compound, the GI50 (LXFL 529) was > 100 µM (inactive), the GI50 (SK-MEL-28) was > 100 µM (inactive) and the GI50 (SW-620) was > 100 µM (inactive). For the same compound, the GI50 (COLO 205) was > 100 µM (inactive), the GI50 (Malme-3M) was > 100 µM (inactive) and the GI50 (UACC-257) was > 100 µM (inactive). The GI50 (KM-20L2) was > 100 µM (inactive), the GI50 (RPMI-8226) was > 100 µM (inactive) and the GI50 (HOP-62) was > 100 µM (inactive). For the same compound, the GI50 (UACC-62) was > 100 µM (inactive), the GI50 (OVCAR-4) was > 100 µM (inactive) and the GI50 (SNB-19) was > 100 µM (inactive). The GI50 (M19-MEL) was > 100 µM (inactive), the GI50 (SK-OV-3) was > 100 µM (inactive) and the GI50 (SK-MEL-2) was > 100 µM (inactive). The GI50 (CCRF-CEM) was > 100 µM (inactive), the GI50 (DMS-114) was > 100 µM (inactive) and the GI50 (LOX IMVI) was > 100 µM (inactive). For the same compound, the GI50 (K562) was > 100 µM (inactive), the GI50 (HCT-116) was > 100 µM (inactive) and the GI50 (IGROV-1) was > 100 µM (inactive). For the same compound, the GI50 (HOP-18) was > 100 µM (inactive), the GI50 (NCI-H226) was > 100 µM (inactive) and the GI50 (M14) was > 100 µM (inactive). The GI50 (HL-60) was > 100 µM (inactive), the GI50 (DMS-273) was > 100 µM (inactive) and the GI50 (OVCAR-8) was > 100 µM (inactive). For the same compound, the GI50 (UO-31) was > 100 µM (inactive), the GI50 (SNB-78) was > 100 µM (inactive) and the GI50 (EKVX) was > 100 µM (inactive). For the same compound, the GI50 (HT-29) was > 100 µM (inactive), the GI50 (SF-539) was > 100 µM (inactive) and the GI50 (SK-MEL-5) was > 100 µM (inactive). The GI50 (U-251) was > 100 µM (inactive), the GI50 (NCI-H23) was > 100 µM (inactive) and the GI50 (DLD-1) was > 100 µM (inactive). The GI50 (TK-10) was > 100 µM (inactive).
